Results on 1 compound are retold here after article PMC2894972, “Protein-Protein Interaction Antagonists as Novel Inhibitors of Non-Canonical Polyubiquitylation” (PLoS ONE, 2010).

Broadly, the IC50 is the concentration that gives 50% inhibition.

The assay has as its target T1, Ubc13-Uev1 heterodimer (Homo sapiens, UniProt P61088).
T1 construct: gene UBE2N; heterodimer of purified recombinant Ubc13 and Uev1; with Ubiquitin-conjugating enzyme E2 variant 1
Put plainly: surface plasmon resonance competition: Ubc13 preincubated with compound, injected over immobilized Uev1. In kind it is binding. The settings on record: inhibition of Ubc13-Uev1 interaction; Ubc13 400 nM; 10 mM HEPES, 0.15 M NaCl, pH 7.4; legend prints 1.1 µM. (In general: SPR reads the build-up and loss of mass on a sensor chip optically.)

T1 sequence (P61088 whole entry): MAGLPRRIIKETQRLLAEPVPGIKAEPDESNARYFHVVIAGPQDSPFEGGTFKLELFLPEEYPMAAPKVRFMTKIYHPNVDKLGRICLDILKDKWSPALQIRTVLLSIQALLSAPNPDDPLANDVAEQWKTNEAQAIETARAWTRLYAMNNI
T1 sequence (Q13404 2-147 partner): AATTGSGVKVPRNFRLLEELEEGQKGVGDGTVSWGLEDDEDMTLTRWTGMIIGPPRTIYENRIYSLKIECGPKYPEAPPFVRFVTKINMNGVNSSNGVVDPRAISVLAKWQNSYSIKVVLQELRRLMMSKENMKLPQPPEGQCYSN

For `NC(=O)CN(CCc1ccccn1)C(=O)CC1C(=O)N(CCc2ccc(F)cc2)CC(=O)N1CCc1ccc(F)cc1` (stereo not shown) [IIa, compound IIa], the IC50 is 1100 nM.
